Laboratory results: US20210113501A1, “METHOD OF ADMINISTERING BETA-HYDROXY-BETA-METHYLBUTYRATE (HMB)” (Metabolic Technologies, Inc., priority 2009, published 2021)

Assay: Study 2 blood chemistry
Type: in vivo, human
Details: for Aspartate Aminotransferase / Gamma-glutamyl: in U/L (unit assumed)
Protocol: Study 2 design. Study 2 was conducted similar to study 1 with the following modifications. In study 2, plasma levels of HMB were measured for 1440 min (24 h) and total urine collection was also performed for measurement of urinary HMB excretion during this period. After the 180 min blood sample, the subjects were allowed to leave the laboratory and were instructed to return to the laboratory for additional blood samples at 360, 720, and 1440 min after the ingestion of the supplement. As in study 1, each subject took each of the treatments with at least a one week washout period between treatments. Samples were again stored frozen at −70° C. for analysis of plasma and urinary HMB concentrations. Pre-ingestion, 180 min and 1440 min blood samples were again assayed for the same measurements already for study 1. Subjects were provided with a standardized lunch after the 180 min blood sampling and instructed to eat this at approximately 240 min post ingestion. Following the 720 min blood sample, subjects were instructed to eat a normal evening meal before 10 pm. Subjects reported back to the laboratory the following morning for the fasted 1440 min blood sample. A urine collection container was provided and subjects collected all urine produced during the experimental 24 h experimental period. The urine was stored refrigerated when not being collected. Urine volumes were measured and samples of the total urine collection were taken and stored frozen at −70° C. until analyzed for HMB.
The data were analyzed using a crossover design with Proc GLM in SAS. (45) For the timed sampling of plasma HMB a repeated measures polynomial model was used. The model included subject, order, and treatment main effects and time by treatment interaction where appropriate. For other parameters Proc GLM was also used with subject, order, and treatment main effects and the p values are reported for the treatment main effect. Statistical significance was determined for p<0.05 and a trend was determined for 0.05<p<0.10.

CC(C)(O)CC(=O)O [HMB-Acid Gel Sublingual, 3-hydroxy-3-methylbutyric acid]
A:G Ratio (After (24 h)): 1.8 ± 0.1 | Alanine Aminotransferase (After (24 h)): 16.6 ± 1.8 IU/L | Albumin (After (24 h)): 4.2 ± 0.1 g/dL | Alkaline Phosphatase (After (24 h)): 62.8 ± 6.7 IU/L | Blood Urea Nitrogen (After (24 h)): 15.4 ± 1.1 mg/dL | CO2 (After (24 h)): 27.9 ± 0.4 mEq/L | Chloride (After (24 h)): 104.3 ± 0.9 mEq/L | Cholesterol Ratio (After (24 h)): 3.2 ± 0.2 | Creatinine (After (24 h)): 1.0 ± 0.1 mg/dL | Direct Bilirubin (After (24 h)): 0.1 ± 0.04 mg/dL | Globulin (After (24 h)): 2.4 ± 0.1 g/dL | Glucose (After (24 h)): 80.8 ± 2.1 mg/dL | HDL (After (24 h)): 51.3 ± 2.8 mg/dL | Iron (After (24 h)): 65.0 ± 12.1 µg/dL | Iron Binding Capacity (After (24 h)): 385.0 ± 29.8 µg/dL | Iron Saturation (After (24 h)): 20.1 ± 4.2% | LDL (After (24 h)): 90.4 ± 6.8 mg/dL | Lactate Dehydrogenase (After (24 h)): 151.8 ± 5.2 IU/L | Phosphorus (After (24 h)): 4.6 ± 0.2 mg/dL | Potassium (After (24 h)): 4.9 ± 0.1 mEq/L | Protein (After (24 h)): 6.6 ± 0.2 g/dL | Sodium (After (24 h)): 142.1 ± 1.1 mEq/L | Total Bilirubin (After (24 h)): 0.5 ± 0.1 mg/dL | Total Cholesterol (After (24 h)): 163.3 ± 9.3 mg/dL | Triglycerides (After (24 h)): 107.6 ± 16.6 mg/dL | UIBC (After (24 h)): 312.0 ± 35.9 µg/dL | Uric Acid (After (24 h)): 4.7 ± 0.3 mg/dL | Aspartate Aminotransferase (After (24 h)): 24.8 ± 2.3 | Gamma-glutamyl (After (24 h)): 13.9 ± 1.0 | A:G Ratio (Before): 1.8 ± 0.1 | Alanine Aminotransferase (Before): 15.3 ± 1.5 IU/L | Albumin (Before): 4.1 ± 0.1 g/dL | Alkaline Phosphatase (Before): 66.5 ± 7.3 IU/L | Blood Urea Nitrogen (Before): 15.3 ± 1.7 mg/dL | CO2 (Before): 25.3 ± 0.8 mEq/L | Chloride (Before): 102.1 ± 0.5 mEq/L | Cholesterol Ratio (Before): 3.1 ± 0.2 | Creatinine (Before): 1.0 ± 0.1 mg/dL | Direct Bilirubin (Before): 0.1 ± 0.03 mg/dL | Globulin (Before): 2.3 ± 0.1 g/dL | Glucose (Before): 73.0 ± 1.8 mg/dL | HDL (Before): 52.3 ± 3.1 mg/dL | Iron (Before): 107.6 ± 13.7 µg/dL | Iron Binding Capacity (Before): 371.9 ± 31.4 µg/dL | Iron Saturation (Before): 30.1 ± 5.1% | LDL (Before): 91.3 ± 5.9 mg/dL | Lactate Dehydrogenase (Before): 163.8 ± 11.9 IU/L | Phosphorus (Before): 4.1 ± 0.1 mg/dL | Potassium (Before): 4.0 ± 0.1 mEq/L | Protein (Before): 6.5 ± 0.2 g/dL | Sodium (Before): 138.5 ± 0.6 mEq/L | Total Bilirubin (Before): 0.6 ± 0.1 mg/dL | Total Cholesterol (Before): 161.6 ± 9.4 mg/dL | Triglycerides (Before): 93.1 ± 10.6 mg/dL | UIBC (Before): 264.3 ± 33.3 µg/dL | Uric Acid (Before): 4.7 ± 0.3 mg/dL | A:G Ratio % Change (Before to After): −1.4% | Alanine Aminotransferase % Change (Before to After): 9.0% | Albumin % Change (Before to After): 2.7% | Alkaline Phosphatase % Change (Before to After): −5.6% | Aspartate Aminotransferase % Change (Before to After): 3.7% | Blood Urea Nitrogen % Change (Before to After): 0.8% | CO2 % Change (Before to After): 10.4% | Chloride % Change (Before to After): 2.1% | Cholesterol Ratio % Change (Before to After): 3.6% | Creatinine % Change (Before to After): 7.9% | Direct Bilirubin % Change (Before to After): −12.8% | Gamma-glutamyl % Change (Before to After): 0.0% | Globulin % Change (Before to After): 3.2% | Glucose % Change (Before to After): 10.6% | HDL % Change (Before to After): −1.9% | Iron % Change (Before to After): −39.6% | Iron Binding Capacity % Change (Before to After): 3.5% | Iron Saturation % Change (Before to After): −33.2% | LDL % Change (Before to After): −1.0% | Lactate Dehydrogenase % Change (Before to After): −7.3% | Phosphorus % Change (Before to After): 11.5% | Potassium % Change (Before to After): 21.7% | Protein % Change (Before to After): 2.9% | Sodium % Change (Before to After): 2.6% | Total Bilirubin % Change (Before to After): −13.3% | Total Cholesterol % Change (Before to After): 1.0% | Triglycerides % Change (Before to After): 15.6% | UIBC % Change (Before to After): 18.1% | Uric Acid % Change (Before to After): 0.8% | Aspartate Aminotransferase (Before): 23.9 ± 3.2 | Gamma-glutamyl (Before): 13.9±1.2
